Laboratory results reported in the NIST ThermoML archive (doi:10.1021/je0301489).

Columns and labels:
[1] = xn = mol fraction of the nth substance listed; settings: 101.33 kPa, Liquid
[2] = refractive index (Na D-line) (dimensionless); xn = mol fraction of the nth substance listed; settings: 101.33 kPa, Liquid

C1COCCO1 [1,4-dioxane] + CCCCCCCCOC(=O)c1ccccc1C(=O)OCCCCCCCC
x1 = 1
Settings	mass density, 298.15 K [kg/m3]	mass density, 303.15 K [kg/m3]	mass density, 308.15 K [kg/m3]	refractive index, 298.15 K	refractive index, 303.15 K	refractive index, 308.15 K	speed of sound, 298.15 K [m/s]	viscosity, 298.15 K [mPa·s]	viscosity, 303.15 K [mPa·s]	viscosity, 308.15 K [mPa·s]
[1]	1027.6	1021.9	1016.2	–	–	–	1348	1.166	1.069	0.984
[2]	–	–	–	1.4202	1.417	1.4144	–	–	–	–

C1COCCO1 [1,4-dioxane] + CCOC(=O)C(=O)OCC
x1 = 1
Settings	mass density, 298.15 K [kg/m3]	mass density, 303.15 K [kg/m3]	mass density, 308.15 K [kg/m3]	refractive index, 298.15 K	refractive index, 303.15 K	refractive index, 308.15 K	speed of sound, 298.15 K [m/s]	viscosity, 298.15 K [mPa·s]	viscosity, 303.15 K [mPa·s]	viscosity, 308.15 K [mPa·s]
[1]	1027.6	1021.9	1016.2	–	–	–	1348	1.167	1.069	0.984
[2]	–	–	–	1.4202	1.417	1.4144	–	–	–	–

C1COCCO1 [1,4-dioxane] + CCOC(=O)CC(C)=O
x1 = 1
Settings	mass density, 298.15 K [kg/m3]	mass density, 303.15 K [kg/m3]	mass density, 308.15 K [kg/m3]	refractive index, 298.15 K	refractive index, 303.15 K	refractive index, 308.15 K	speed of sound, 298.15 K [m/s]	viscosity, 298.15 K [mPa·s]	viscosity, 303.15 K [mPa·s]	viscosity, 308.15 K [mPa·s]
[1]	1027.6	1021.9	1016.2	–	–	–	1347	1.166	1.069	0.984
[2]	–	–	–	1.4201	1.417	1.4144	–	–	–	–

C1COCCO1 [1,4-dioxane] + CCOC(=O)c1ccccc1C(=O)OCC
x1 = 1
Settings	mass density, 298.15 K [kg/m3]	mass density, 303.15 K [kg/m3]	mass density, 308.15 K [kg/m3]	refractive index, 298.15 K	refractive index, 303.15 K	refractive index, 308.15 K	speed of sound, 298.15 K [m/s]	viscosity, 298.15 K [mPa·s]	viscosity, 303.15 K [mPa·s]	viscosity, 308.15 K [mPa·s]
[1]	1027.6	1021.9	1016.2	–	–	–	1347	1.167	1.069	0.984
[2]	–	–	–	1.4202	1.417	1.4144	–	–	–	–

CCOC(=O)C(=O)OCC [diethyl ethanedioate] + C1COCCO1
Settings	mass density, 298.15 K [kg/m3]	mass density, 303.15 K [kg/m3]	mass density, 308.15 K [kg/m3]	refractive index, 298.15 K	refractive index, 303.15 K	refractive index, 308.15 K	speed of sound, 298.15 K [m/s]	viscosity, 298.15 K [mPa·s]	viscosity, 303.15 K [mPa·s]	viscosity, 308.15 K [mPa·s]
[1], x2 = 0	1072.9	1066.2	1060.8	–	–	–	1276	1.759	1.581	1.437
[1], x2 = 0.1094	1070.9	1064.2	1058.1	–	–	–	1284	1.69	1.539	1.388
[1], x2 = 0.2069	1067.5	1061.4	1055.3	–	–	–	1292	1.631	1.487	1.343
[1], x2 = 0.3098	1064.4	1058.3	1052.1	–	–	–	1301	1.566	1.428	1.291
[1], x2 = 0.4009	1061.1	1055	1048.9	–	–	–	1310	1.505	1.375	1.245
[1], x2 = 0.4975	1057.3	1051.1	1045	–	–	–	1320	1.44	1.316	1.193
[1], x2 = 0.5978	1052.8	1046.7	1040.6	–	–	–	1329	1.375	1.259	1.143
[1], x2 = 0.7008	1047.7	1041.5	1035.4	–	–	–	1337	1.312	1.203	1.094
[1], x2 = 0.7971	1042.1	1036.1	1029.9	–	–	–	1343	1.259	1.157	1.055
[1], x2 = 0.8976	1035.5	1029.5	1023.6	–	–	–	1347	1.206	1.111	1.016
[2], x2 = 0	–	–	–	1.4084	1.406	1.4034	–	–	–	–
[2], x2 = 0.1094	–	–	–	1.4092	1.4068	1.4043	–	–	–	–
[2], x2 = 0.2069	–	–	–	1.4101	1.4077	1.4052	–	–	–	–
[2], x2 = 0.3098	–	–	–	1.4112	1.4087	1.4062	–	–	–	–
[2], x2 = 0.4009	–	–	–	1.4119	1.4094	1.407	–	–	–	–
[2], x2 = 0.4975	–	–	–	1.4129	1.4106	1.4084	–	–	–	–
[2], x2 = 0.5978	–	–	–	1.4144	1.4118	1.409	–	–	–	–
[2], x2 = 0.7008	–	–	–	1.4157	1.4132	1.4106	–	–	–	–
[2], x2 = 0.7971	–	–	–	1.417	1.4145	1.412	–	–	–	–
[2], x2 = 0.8976	–	–	–	1.4183	1.4158	1.4132	–	–	–	–
